# Source: patent US20230390287A1, “MODULATORS OF PD-L1/PD-1 INTERACTION AND USES THEREOF” (Ramot at Tel-Aviv University Ltd., priority 2021, published 2023)
# “Also recorded” adds a separate entry of the source.
# Columns and labels:
# recombinant human PD-L1 = recombinant human PD-L1 (Homo sapiens (Human), UniProt Q9NZQ7); assay: Differential scanning fluorimetry (DSF) thermal denaturation; assay type: binding; settings: 100 μM compound, 1% DMSO
# Procedure: DSF was performed in a C1000 Touch thermal cycler equipped with a CFX96 optical reaction module (Bio Rad). For all fluorescence measurements, samples contained recombinant human PD-L1 (ThermoFisher) at 500 μg/ml in phosphate buffered saline (PBS), pH 7.4, 5% (m/v) Mannitol, 5% (m/v) Trehalose, 0.02% (v/v) Tween® 80, 2.5-fold SYPRO® Orange, 1% (v/v) DMSO (Sigma-Aldrich) and 100 μM of each compound. The PCR plate was sealed with Optical-Quality Sealing Tape (Bio-Rad) and centrifuged at 300 g for 5 minutes. The DSF assay was carried out by increasing the temperature from 20 to 90° C., with a 1 second hold time every 0.2° C. and fluorescence acquisition using the FRET channel, after an initial incubation step of 10 minutes at 20° C. Control experiments in the absence of DMSO and/or compounds were routinely performed in each microplate.
# Data were processed using CFX Manager Software V3.0 (Bio-Rad) and the GraphPad Prism 7. Temperature scan curves were fitted to a dose-response sigmoid function (Boltzmann equation) and the melting temperature (Tm values) were obtained from the midpoint of the transition. Normalization of the RFU was also performed to prevent distraction due to different maximum and minimum values upon compounds treatment. The RFU values from different data sets were converted to a common scale 0-1, where 0 represents the fluorescence of the native protein and 1 the fluorescence of the denatured protein. To monitor the binding properties towards each compound, DSF assays were run in the absence and presence of 100 μM compounds using 1% (v/v) DMSO as vehicle control.
# To test this hypothesis, the melting temperature (Tm) of the PD-L1 was determined in thermal denaturation assays by differential scanning fluorimetry (DSF) and checked for a shift in the proteins' Tm (ΔTm) in the presence of the PD-L1 inhibitor candidates. The extent of temperature shift is proportional to the compounds' stabilizing effect and thereby used to infer inhibitors' affinity.
# [1] = tested on: PD-1/PD-L1 interaction on MDA-MB-231 cells; assay: Cell-based PD-1/PD-L1 inhibition (accessible PD-L1 by flow cytometry), MDA-MB-231; design: species or system human; settings: Homo sapiens, 72 hours
# Procedure: (§1) PD-1/PD-L1 Inhibition on Human Melanoma and Breast Cancer Cell Lines:
# (§2) Cells (0.1×10^6 cells) were tested for PD-1/PD-L1 inhibition by co-incubation of hit compounds, DMSO (background), BMS-202 (Selleckchem) and anti-human PD-L1 (BioxCell, Clone 29E.2A3) (positive controls) for 72 hours in 2 ml DMEM medium. Non-confluent cell cultures were scraped into single-cell suspension, washed with PBS, and counted. Cells were subsequently stained with PD-1 fluorescent proxy for 30 minutes at 4° C., washed twice and resuspended in FACS buffer. Cells were analyzed using BD LSRFortessa (BD Biosciences) and data analyzed with FlowJo software for Mac (FlowJo, LLC 2013-2016). Mean fluorescence intensity (MFI) was derived from each sample. The PD-1/PD-L1 inhibition in cells was measured by a decrease in MFI relative to background.
# The selected cell lines were incubated with the selected compounds to assess compound-binding affinities, and consequently PD-1/PD-L1 inhibition. The levels of remaining accessible PD-L1 in these cells were evaluated by FACS analysis using a fluorescence PD-1 proxy. To understand compound activity, different incubation times (24, 48 and 72 hours) were evaluated on MDA-MB-231 breast cancer cell line.
# (§3) The remaining accessible PD-L1 was determined by flow cytometry.
# [2] = tested on: PD-1/PD-L1 interaction on A375 cells; assay: Cell-based PD-1/PD-L1 inhibition (accessible PD-L1 by flow cytometry), A375; design: species or system human; settings: Homo sapiens, A-375; A375 stimulated with IFN-γ; 72 hours
# Procedure: as §1, §2, §3
# [3] = tested on: MC38 expressing human PD-L1 (MC38-hPD-L1); assay: MC38-hPD-L1 tumor model in humanized PD-1 mice; assay type: in vivo
# Procedure: Male C57BL/6N-Pdcd1tm1^(huPDCD1-ICP11)Geno humanized for PD-1 (6 weeks old) were purchased from genOway and housed in an animal facility.
# Male C57BL/6N humanized PD-1 mice were implanted with 1×10^6 MC38 cells expressing humanized PD-L1 (MC38-hPD-L1) subcutaneously in the right flank. Twelve days later, when tumor volumes reached approx. 60 mm^3 (40-110 mm^3) as measured by digital caliper, animals were randomized into the three treatment groups (n=6 per group). Compound 69 was administered via intraperitoneal (i.p.) injection at 10 mg/kg for 10 daily doses between study days 12 and 22. Similarly, vehicle control (5% (v/v) DMSO, 30% (v/v) polyethylene glycol (PEG) 300, 5% (v/v) Tween® 80, and double distilled (dd) H2O) was administered. The αPD-L1 antibody Atezolizumab was administered via i.p. injection at 10 mg/kg thrice weekly between study days 12 and 22. The tumor size and body weight were measured every 3 days. The tumor volume was determined by X^2Y0.5 (X, small diameter; Y, large diameter).
# At day 30, the mice were euthanized, and MC38 tumors and spleens were collected. Tumor and spleen single-cell suspensions were obtained by mechanical disruption of the tissues. […] The obtained single-cell suspensions were then stained with fluorochrome-labelled antibodies and analyzed using a Cytek Aurora (Cytek) and FlowJo software (TreeStar). […]
# Sequence of recombinant human PD-L1 (Q9NZQ7 19-238): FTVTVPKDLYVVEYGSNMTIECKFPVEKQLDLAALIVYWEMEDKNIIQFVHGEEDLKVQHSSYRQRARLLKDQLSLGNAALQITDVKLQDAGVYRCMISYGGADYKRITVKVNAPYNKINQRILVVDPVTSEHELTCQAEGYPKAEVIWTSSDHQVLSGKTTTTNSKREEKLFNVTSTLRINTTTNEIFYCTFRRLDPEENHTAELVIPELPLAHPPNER
smiles,measurement,setting,value
CCCCCN(CCCCC)C(C)C(=O)c1cc(C)c2ccc3cc(C(C)C)ccc3c2c1.Cl (centres unmarked) [Compound 69],thermal shift / stabilization of PD-L1,recombinant human PD-L1,stabilization of PD-L1
same,IC50,[1],1 µM
same,IC50,[2],1 µM
same,tumor volume reduction relative to vehicle control,"[3]; 10 mg/kg i.p., 10 daily doses",93.6%
same,cytotoxic CD8+ tumor-infiltrating lymphocytes,"[3]; tumors isolated at day 30, flow cytometry",significant increase; also recorded: significantly outperformed the monoclonal antibody
